Counter-ions that a name gives are not always drawn.
Experiments:
[1] = test system: human fibroblasts; assay: Conversion of human fibroblasts into monolayer epithelial-like cells; type: cell-based; conditions: added into the combination CHIR99021, 616452 and TTNPB
Procedure: KnockOut™ DMEM (Gibco, 10829018) supplemented with 10% Knockout Serum Replacement (KSR) (Gibco, 10828028), 10% FBS, 1% GlutaMAX™, 1% NEAA, 1% Penicillin-Streptomycin, 0.055 mM 2-mercaptoethanol, 50 μg/ml L-Ascorbic acid 2-phosphate (Vc2P) (Sigma, A8960), 5 mM LiCl (Sigma, L4408), 1 mM Nicotinamide (NAM) (Sigma, 72340), 2 mg/mL AlbuMAX™-II (Gibco, 11021045) and the small molecules CHIR999021 (10 μM), 616452 (10 μM), TTNPB (2 μM), SAG (0.5 μM), ABT-869 (1 μM), Rock inhibitor (Y-27632 (2 μM) or Tzv (2 μM))
(§1) Cells were maintained at 37° C. with 21% 02 and 5% CO2. The induction medium was changed every 3-4 days. HEFs were seeded at a density of 1-1.5×10^4 cells per well of a 12-well plate in 15%. FBS-DMEM medium. Change the medium into stage I induction medium on the next day. For stage I induction, single layer epithelial-like cells would emerge at day 4-6 and approach 80%-100% confluence at day 8-12, then change the medium into stage II induction medium. For stage II induction, multi-layered colonies appeared after 8-12 days treatment and these cell colonies would continually grow larger. After totally 16-20 days' stage II treatment, change the medium into stage III condition. For stage III induction, 8-12 days treatment of stage III medium is required and then change the medium into stage IV condition. For stage IV induction, VPA (500 μM) was included in the first 4 days. Primary hCiPSC colonies would emerge after 6-8 days' treatment. At the end of stage IV, immunofluorescent staining of co-expression of OCT4 and NANOG was used to confirm the generation of primary hCiPSC colonies. Primary hCiPSC colony number was calculated as the number of the compact OCT4 positive colonies. Reprogramming efficiency was calculated as the number of primary hCiPSC colonies divided by the number of input HEFs.

[2] = test system: human somatic cells; assay: Replacement of small molecules by others targeting the same pathway; type: cell-based; conditions: for replacement of ABT 869: receptor tyrosine kinase inhibitor; for replacement of IWP-2: Wnt inhibitor
Procedure: VPA (500 μM), Tranylcypromine (10 μM), DZNep (0.05 μM), and EPZ004777 (5 μM) were included in the first 4 days. In several experiments, to testing the reprogramming efficiency after removing each small molecules, the indicated small molecules were removed from the cocktails.

[3] = test system: human somatic cells; assay: hCiPSC colonies at the end of reprogramming after withdrawing individual chemicals from stage I or II; type: cell-based; conditions: factor removed
Procedure: as §1
(§2) In several experiments, to testing the reprogramming efficiency after removing each small molecules, the indicated small molecules were removed from the cocktails. The concentration of the small molecules used to regulate the same pathway or targets were indicated as follow: GSK3 inhibitors (CHIR99021: 3-15 μM; TD114-2: 0.5-2 μM; CHIR98014: 1-3 μM; GSK3βi XV: 0.05-0.2 μM); RA pathway agonists (TTNPB: 0.5-10 μM; Ch55: 1-5 μM; AM580: 0.1-1 μM); Rock inhibitors (TZV: 2-10 μM; Y27632: 2-15 μM; Fasudil: 2-10 μM; HA1100: 2-10 μM); TGFβ inhibitors (A8301: 0.1-5 μM; SB431542: 2-50 μM; LY364947: 0.5 μM; LY21: 0.5 μM; 616452: 10 μM).
(§3) In several experiments, to testing the reprogramming efficiency after regulate each small molecules, the indicated small molecules were removed from the cocktails. The concentration of the small molecules used to targeting the same pathway or targets were indicated as follow: GSK3 inhibitors (CHIR99021: 3-15 μM; TD114-2: 0.5-2 μM; CHIR98014: 1-3 μM; GSK3βi XV: 0.05-0.2 μM); TGFβ inhibitors (A8301: 0.2-5 μM; SB431542: 2-50 μM; 616452: 10 μM); RA pathway agonists (TTNPB: 0.2-10 μM; Ch55: 1-10 μM; AM580: 0.1-1 μM); Rock inhibitors (Y27632: 2-15 μM; Fasudil: 2-10 μM; HA1100: 2-10 μM; TZV: 2-10 μM); Smoothened agonists (SAG: 0.2-2 μM; Purmorphamine: 0.5-2 μM; Hg-Ag1.5: 0.5-1 μM; Human shh: 20-200 μM); histone demethylation inhibitors (Tranylcypromine: 2-50 μM; GSK2879: 0.02-2 μM; LSD-C76: 0.2-5 μM; S2101: 0.5-5 μM; LSD-2D: 0.2-5 μM; RN-1: 0.2-5 μM); DNMT inhibitors (5-azaC: 2-15 μM; Decitabine: 0.5-10 μM; RG108: 0.5-10 μM); JNK inhibitors (JNK-in-8: 0.2-2 μM; JNK-in-5: 0.5-1 μM; JNK-in-7: 0.2-2 μM; JNK-in-12: 0.2-0.5 μM); CBP/p300 bromodomain inhibitor (SGC-CBP30: 0.5-2 μM; I-CBP112: 0.5-5 μM; GNE272: 0.5-5μM; GNE409:0.5-5μM); Menin-MLL interaction inhibitor (VTP50469: 0.5-2μM; MI3454: 0.5-2μM; WDR5-IN-4: 0.5-2μM).

[4] = test system: fibroblast marker genes (somatic program); assay: Withdrawing individual chemicals from stage I: fibroblast marker genes; type: cell-based, human; conditions: compound removed from stage I condition
Procedure: as §2, with “Ch55: 1-5 μM;” left out, “([…]:” for “(A8301:”, “μM). […] The data were analyzed using the delta-delta Ct method. GAPDH was used as a control to normalize the expression of target genes.” for “μM).”

[5] = test system: LIN28A; assay: Withdrawing individual chemicals from stage I: LIN28A expression; type: cell-based, human; conditions: compound removed from stage I condition
Procedure: as §2, with “Ch55: 1-5 μM;” left out, “([…]:” for “(A8301:”, “μM). […] The data were analyzed using the delta-delta Ct method. GAPDH was used as a control to normalize the expression of target genes.” for “μM).”

[6] = test system: human somatic cells; assay: Reprogramming efficiency with supplemental inhibitors; type: cell-based; conditions: inhibitor added to induction medium
Procedure: KnockOut™ DMEM supplemented with 10% KSR, 10% FBS, 1% GlutaMAX™, 1% NEAA, 0.055 mM 2-mercaptoethanol, 1% Penicillin-Streptomycin, 50 μg/ml Vc2p, 5 mM LiCl, 1 mM NAM, 100 ng/ml bFGF (Origene) and the small molecules CHIR99021 (10-12 μM), 616452 (10 μM), TTNPB (2 μM), SAG (0.5 μM), ABT-869 (1 μM), Y-27632 (10 μM), JNKIN8 (1 μM), Tranylcypromine (2 μM), 5-Azacytidine (5 μM), UNC0224 (1 μM), Ruxolitinib (1 μM), BIRB796 (2 μM), Dorsormorphin (0.5-1 μM). To enhance the reprogramming efficiency, the CBP/p300 bromodomain inhibitor SGC-CBP30 (2 μM) and Menin-MLL interaction inhibitor VTP50469 were introduced in stage II induction medium.
as §3, with “0.5-2μM). […]” for “0.5-2μM).”

Cc1ccc(F)c(NC(=O)Nc2ccc(-c3cccc4[nH]nc(N)c34)cc2)c1 [ABT869, N-[4-(3-amino-1H-indazol-4-yl)phenyl]-N′-(2-fluoro-5-methylphenyl)-urea]
generation of the epithelial-like cells [1]: can facilitate

COc1cc2ncc(-c3ccccc3)nc2cc1OC [AG1296, 6,7-Dimethoxy-3-phenylquinoxaline]
replacement of ABT 869 [2]: able to replace ABT 869

Cc1cnc(-c2cnc(NCCNc3ccc(C#N)cn3)nc2-c2ccc(Cl)cc2Cl)[nH]1 [CHIR99021, 6-[[2-[[4-(2,4-Dichlorophenyl)-5-(5-methyl-1H-imidazol-2-yl)-2-pyrimidinyl]amino]ethyl]amino]-3-pyridinecarbonitrile]
generation of hCiPSCs [3]: greatly impaired | downregulation of the somatic program [4]: inhibited | LIN28A activation [5]: severely reduced

CC(=O)N1CCc2c(c(Nc3ccc(-c4cnn(C)c4)cc3F)nn2[C@H]2CCOC2)C1 [GNE272]
reprogramming efficiency [6]: can improve

CCC(=O)N1CCOc2c(cc(-c3ccc(OC)c(OC)c3)cc2OC[C@H]2CCCN(C)C2)C1 [I-CBP112]
reprogramming efficiency [6]: can improve

O=C(Nc1cccc2cccnc12)c1ccc(N2C(=O)[C@@H]3[C@H](C2=O)[C@@H]2C=C[C@H]3C2)cc1 [IWR-1]
replacement of IWP-2 [2]: able to replace IWP-2

CNC1CCC(N(Cc2cccc(-c3ccncc3)c2)C(=O)c2sc3ccccc3c2Cl)CC1 (centres unmarked) [SAG]
generation of the epithelial-like cells [1]: can facilitate

COc1ccc(CCc2nc3cc(-c4c(C)noc4C)ccc3n2C[C@H](C)N2CCOCC2)cc1Cl [SGC-CBP30, 2-[2-(3-chloro-4-methoxyphenyl)ethyl]-5-(3,5-dimethyl-4-isoxazolyl)-1-[(2S)-2-(4-morpholinyl)propyl]-1H-benzimidazole]
reprogramming efficiency [6]: can improve

C/C(=C\c1ccc(C(=O)O)cc1)c1ccc2c(c1)C(C)(C)CCC2(C)C [TTNPB, 4-[(E)-2-(5,6,7,8-Tetrahydro-5,5,8,8-tetramethyl-2-naphthalenyl)-1-propenyl]benzoic acid]
generation of hCiPSCs [3]: greatly impaired | downregulation of the somatic program [4]: inhibited | LIN28A activation [5]: severely reduced

Clc1ccc(Nc2nnc(Cc3ccncc3)c3ccccc23)cc1 [Valatanib]
replacement of ABT 869 [2]: able to replace ABT 869

Cc1cc(-c2ccc(CC(=O)Nc3ccc(-c4cccnc4)cc3)cc2)ccn1 [WNT-C59, 4-(2-Methyl-4-pyridinyl)-N-[4-(3-pyridinyl)phenyl]benzeneacetamide]
replacement of IWP-2 [2]: able to replace IWP-2

O=c1[nH]c(-c2ccc(C(F)(F)F)cc2)nc2c1CSCC2 [XAV-939, 3,5,7,8-Tetrahydro-2-[4-(trifluoromethyl)phenyl]-4H-thiopyrano[4,3-d]pyrimidin-4-one]
replacement of IWP-2 [2]: able to replace IWP-2

C[C@@H](N)[C@H]1CC[C@H](C(=O)Nc2ccncc2)CC1 [Y27632, (+)-(R)-trans-4-(1-aminoethyl)-N-(4-pyridyl)cyclohexanecarboxamide+++dihydrochloride]
generation of the epithelial-like cells [1]: can facilitate

Cc1cccc(-c2n[nH]cc2-c2ccc3ncccc3n2)n1 [compound 616452, 2-(3-(6-Methylpyridin-2-yl)-1H-pyrazol-4-yl)-1,5-naphthyridine]
generation of hCiPSCs [3]: greatly impaired | downregulation of the somatic program [4]: inhibited | LIN28A activation [5]: severely reduced

Reference: US20240182867A1, “CHEMICAL REPROGRAMMING OF HUMAN SOMATIC CELLS INTO PLURIPOTENT CELLS” (Peking University, priority 2021, published 2024)
